Source: patent US10738101B2, “Method for selecting odor-controlling substance” (Kao Corporation, priority 2015, dated 2020)

Tests used:
[1] = target: T1, OR1A1 (Homo sapiens, UniProt Q9P1Q5); assay: Luciferase reporter gene assay, OR1A1-expressing HEK293 cells; assay type: cell-based; conditions: screen, muscone 100 μM, FIG. 1
T1 construct: expressed in transfected cells; host or cells: HEK293
T1 sequence (Q9P1Q5 1-309): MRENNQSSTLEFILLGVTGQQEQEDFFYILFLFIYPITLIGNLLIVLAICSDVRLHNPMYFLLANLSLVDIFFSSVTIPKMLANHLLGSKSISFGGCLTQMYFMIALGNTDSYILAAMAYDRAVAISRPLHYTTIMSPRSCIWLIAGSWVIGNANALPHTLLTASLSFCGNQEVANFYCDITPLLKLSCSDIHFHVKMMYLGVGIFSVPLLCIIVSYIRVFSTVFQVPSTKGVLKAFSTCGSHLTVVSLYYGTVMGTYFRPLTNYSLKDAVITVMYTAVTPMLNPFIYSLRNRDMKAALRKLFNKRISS
Text: On the basis of sequence information registered in GenBank, genes respectively encoding 370 human olfactory receptors shown in Tables 1-1 and 1-2 and genes respectively encoding the human olfactory receptors OR5AN1, OR10G4 and OR9Q2 (respectively set forth in SEQ ID NOS: 1, 3 and 5) were cloned. Each of the genes was cloned by the PCR using human genomic DNA person (G1521: Promega) as a template. Each gene amplified by the PCR was incorporated into a pENTR vector (Invitrogen) in accordance with the instruction, and was recombined to NotI and AscI sites produced downstream from a Flag-Rho tag sequence on a pME18S vector by using NotI and AscI sites present on the pENTR vector.
In 1) of Example 1, HEK293 cells on which the 370 human olfactory receptors were respectively expressed were produced. A reaction solution having a composition shown in Table 2 was prepared and allowed to stand still in a clean bench for 15 minutes, and the resultant was added by 4.4 μL per well in a 384-well plate (BioCoat). Subsequently, the HEK293 cells (20×10^4 cells/cm^2) were seeded by 40 μL per well, and the resultant was cultured for 24 hours in an incubator kept at 37° C. and 5% CO2.
In 2) of Example 1 and Examples 2 and 3, HEK293 cells in which the human olfactory receptor OR5AN1, OR10G4, OR9Q2 or OR1A1 was expressed were produced. […]
The olfactory receptor expressed on the HEK293 cells increases the intracellular cAMP amount by activating adenylate cyclase in conjugation with intracellular Gαs. In the measurement of odor response in this study, luciferase reporter gene assay for monitoring the increase of the intracellular cAMP amount as a luminescence value derived from a firefly luciferase gene (fluc2P-CRE-hygro) was employed. […] Under each of various stimulation conditions, a value fLuc/hRluc obtained by dividing a firefly luciferase-derived luminescence value by a Renilla luciferase-derived luminescence value was calculated. […] A dose-response curve was analyzed using Graph Pad Prism. […]

[2] = test system: odor of p-cresol; assay: Sensory test of cross-adaptation, target odor p-cresol; assay type: in vivo, human; conditions: panelists, test sample smelled before target sample, FIG. 6C
Procedure: The cross-adaptation effect induced by the odorous substance evaluated in Example 2 was estimated by a sensory test. A glass bottle (No. 11, manufactured by Hakuyo Glass Co., Ltd., capacity: 110 mL) was charged with a target odorous substance to be used as a target sample. As the target odorous substance, muscone, guaiacol or p-cresol was used. As the muscone, a cotton ball soaked with 1 mg of muscone was used. As the guaiacol and p-cresol, 1 mL of a mineral oil (Sigma-Aldrich) solution in a concentration of 10 ppm was used. In a similar manner, a glass bottle was charged with a test substance to be used as a test sample. As the test sample, 5 mg of an ethyl vanillin powder, or 1 mL of a mineral oil (Sigma-Aldrich) solution of p-cresyl acetate, p-cresyl isobutyrate or p-methyl quinoline prepared to a concentration of 1,000 ppm was used.
The sensory test was performed by a single blind method by five to eight panelists. The target sample was first presented to each panelist, who was caused to replay on the odor intensity. Next, the test sample was presented for 2 minutes or until the odor could not be perceived. Thereafter, the target sample was presented again, and the panelist was caused to replay on the odor intensity. This series of operations was defined as one set, and the sensory test was carried out with four sets per day per panelist set as the upper limit. A recess of at least 10 minutes or more was provided between the sets.
The panelist was caused to plot the estimated intensity of the target odor on a straight line of 9.5 cm with both ends respectively provided with criteria “No odor” and “Strong odor”. A distance (A) between the position of the target odor intensity plotted in the initial estimate and the end of “No odor”, and a distance (B) between the position of the target odor intensity plotted in the second estimate and the end of “No odor” were obtained, so as to calculate percentage odor intensity of the initial estimate [B/A*100−100]. As this value is smaller, the intensity of the target odor perceived in the second estimate is suppressed stronger as compared with that in the initial estimate, namely, stronger cross-adaptation is induced. If this value is −100%, it means that the target odor was not perceived at all in the second estimate.

[3] = test system: odor of p-cresyl isobutyrate; assay: Sensory test of cross-adaptation, target odor p-cresyl isobutyrate; assay type: in vivo, human; conditions: panelists
[4] = test system: ethyl vanillin odor; assay: Sensory test of cross-adaptation, target odor ethyl vanillin; assay type: in vivo, human; conditions: panelists
[5] = test system: odor of p-methyl quinoline; assay: Sensory test of cross-adaptation, target odor p-methyl quinoline; assay type: in vivo, human; conditions: panelists

C[C@@H]1CCCCCCCCCCCCC(=O)C1 [muscone, (R)-3-methyl-1-cyclopentadecanone]
responsiveness of OR1A1 compared with OR5AN1 [1]: weaker responsiveness | cross-adaptation of p-cresol odor induced by test substance [2]: did not induce the cross-adaptation | cross-adaptation of p-cresyl isobutyrate odor induced by test substance [3]: did not induce the cross-adaptation | cross-adaptation of ethyl vanillin odor induced by test substance [4]: not induced | cross-adaptation of p-methyl quinoline odor induced by test substance [5]: did not induce the cross-adaptation
